We go through 1 compound from patent US8143228B2, “Agents capable of downregulating an MSF-A dependent HIF-1α and use thereof in cancer treatment” (Medical Research Fund of Tel Aviv Sourasky Medical Center, priority 2004, dated 2012).

Where a SMILES comes first, the peptide text is derived from it. The star is where a group is joined. Cbz = O=C(OCc1ccccc1)*

This assay concerns HIF-1α and Ub-HIF-1α. As to the kind of experiment: Proteasome inhibition and HIF-1α ubiquitination, Western blot. Format: cell-based. Particulars: PC-3-Neo cells, 4 hours, 5 and 20 μM. The procedure:
FIGS. 19a-b are Western blot analyses depicting the effect of proteasome inhibition on HIF-1α (FIG. 19a) or actin (FIG. 19b) expression levels in PC-3-MSF-A or PC-3-Neo cells. PC-3-Neo (lanes 1-3) and PC-3-MSF-A (lanes 4-6) cells were treated for 4 hours with either 0.1 DMSO (lanes 1 and 4) or with 5 (lanes 2 and 5) and 20 (lanes 3 and 6) μM MG-132. Whole cell lysates were prepared and equal amounts of protein from each cell lysate were resolved by SDS-PAGE, transferred and immunoblotted with antibodies against HIF-1α (FIG. 19a) and actin (FIG. 19b). Ub-HIF-1α points to ubiquitinated HIF-1α protein species.
FIGS. 20a-b are Western blot analyses of HIF-1α immunoprecipitates depicting the expression level of HIF-1α (FIG. 20a) and ubiquitin (FIG. 20b) in PC-3-Neo and PC-3-MSF-A cells. PC-3-Neo (lanes 1-2) and PC-3-MSF-A (lanes 3-4) cells were treated for 4 hours with either 0.1 DMSO (lanes 1 and 3) or with 10 μM MG-132 (lanes 2 and 4). Whole cell lysates were prepared and subjected to immunoprecipitation (IP) with HIF-1α antibody. Immunoprecipitates were resolved on SDS-PAGE and immunoblotted (IB) with HIF-1α (FIG. 20a) and ubiquitin (FIG. 20b) antibodies. Ub-HIF-1α points to ubiquitinated HIF-1α protein species.
To study the ubiquitination of the endogenous HIF-1α in cells over-expressing MSF-A protein, the proteasome inhibitor MG-132 was used. […]
A general note: Immunoblotting shows a protein as a band on a membrane.

In the case of `CC(C)C[C@@H](C=O)NC(=O)[C@H](CC(C)C)NC(=O)[C@H](CC(C)C)NC(=O)OCc1ccccc1` [MG-132] (Cbz-Leu-Leu-Leu-aldehyde), the “expression of HIF-1α and Ub-HIF-1α” value was “induced the expression of HIF-1α and Ub-HIF-1α”.
